Like-named read-outs stand apart in the source and are kept apart here.
How the values were obtained:
[1] = molecular target: T1, human recombinant PDE9 protein (Homo sapiens, UniProt O76083); test: Measurement of PDE9-inhibiting activity ([3H]-cGMP hydrolysis); format: biochemical
T1 construct: made in house; host or cells: COS-1 cells, transient transfection with pcDNA 3.1 (+); supernatant of the homogenate, not purified
Procedure: Based on the base sequence of hsPDE9A1 registered with GenBank database (accession No.: AF048837), hsPDE9A1 fragment was amplified by polymerase chain reaction under the following conditions, using the following sequence (Amasham Pharmacia Biotech) as the primer and Human Prostate […] cDNA library (CLONTECH) as the template DNA, with Pfu Turbo DNA polymerase ([…]):
PCR condition: [95° C., 5 min]×1 cycle, [(95° C., 1 min), (58° C., 2 min), (72° C., 3 min)]×25 cycles, [72° C., 10 min]×1 cycle
Thus obtained hsPDE9A1 fragment was given a restricted enzymatic treatment with NheI and NotI, and thereafter inserted into pcDNA 3.1 (+) expression vector (Invitrogen) to let it serve as a human PDE9 expression vector.
(§1) Human PDE9 expression vector-transformed Escherichia coli was mass incubated to produce a large amount of human PDE9 expression vector, which was transiently transfected into COS-1 cells, with LIPOFECTAMINE 2000 Reagent (GIBCO). The cells were homogenized in ice-cooled buffer A (40 mmol/L Tris-HCl, pH7.5, 15 mmol/L benzamidine, 15 mmol/L 2-mercaptoethanol, 1 μg/mL Pepstatin A, 1 μg/mL Leupeptin, 5 mmol/L EDTA) and centrifuged at 4° C., 14,000×g for 10 minutes. The supernatant was isolated to provide human recombinant PDE9 protein solution.
This mixed solution was incubated at 30° C. for 30 minutes and the enzymatic reaction of PDE9 was terminated by heating the system in boiling water for 90 seconds. Returning the system to room temperature, 50 μL of Snake venom (SIGMA: 1 mg/mL) was added, followed by 10 minutes' incubation at 30° C., to convert the [^3H]-5′-GMP produced in the previous reaction to [^3H]-guanosine. […] Thereafter [^3H]-guanosine was eluted with 3 mL of 3 mol/L aqueous ammonia and its radiation activity was measured with liquid scintillation counter.
PDE9 inhibition of the tested compound can be calculated by the following formula: […]
From the percent inhibition at various concentration levels of each tested compound, its IC50 value against PDE9 can be determined.

[2] = molecular target: T2, human recombinant PDE5 protein (Homo sapiens, UniProt O76074); test: Measurement of PDE5-inhibiting activity; format: biochemical; settings: Tables A and C; read-out: Inhibiting Activity (IC50 value) PDE5
T2 construct: made in house; host or cells: COS-1 cells, transient transfection with pcDNA 3.1 (+); supernatant of the homogenate, not purified
Procedure: PCR condition: [94° C., 2 min]×1 cycle, [(94° C., 30 sec), (65° C., 30 sec), (68° C., 3 min)]×25 cycles, [68° C., 6 min]×1 cycle
Thus obtained hsPDE5A1 fragment was given a restricted enzymatic treatment with XBaI and EcoRI, and thereafter inserted into pcDNA 3.1 (+) expression vector (Invitrogen) to let it serve as a human PDE5 expression vector.
as §1, with “PDE5” for “PDE9”, “A” for “A (40 mmol/L Tris-HCl, pH7.5, 15 mmol/L benzamidine, 15 mmol/L 2-mercaptoethanol, 1 μg/mL Pepstatin A, 1 μg/mL Leupeptin, 5 mmol/L EDTA)”

[3] = tested on: partial urethra obstruction model in guinea pigs; test: Dysuria pathological model: partial urethra obstruction model, cystometry; format: in vivo, Hartley female guinea pigs; settings: guinea pig, i.v., 1 mg/kg
Procedure: Three-four weeks old Hartley female guinea pigs (Japan SLC, Inc.) were given celiotomy under anesthesia with pentobarbital (30 mg/kg i.p.) and in their urethra to the peripheral side by 1-2 mm from the bladder neck, each a polyethylene tube of 1.4 mm in width and 2.0 mm in inner diameter was placed. After closing the wound, the guinea pigs were bred for at least 3 weeks to produce partial urethra obstruction model in guinea pigs in which occurrence of intravesical pressure rise not accompanied by micturition (uninhibited contraction) and residual urine were observed.
The model was catheterized under anesthesia with urethane (1 g/kg i.p.) at the apex of urinary bladder and right jugular vein for cystometrography and intravenous administration, respectively. The other end of the bladder catheter was connected to a pressure transducer and infusion pump via a three way stop-cock, and physiological saline was continuously infused into the bladder through the infusion pump at a rate of 0.4 mL/min to induce micturition reflex. Immediately after the micturition reflex was induced, infusion of physiological saline into the bladder was stopped. The intravesical pressure at the time the micturition reflex was induced was measured with the pressure transducer, and the obtained cystometrogram was recorded with pen recorder. The urine voided was collected with disposable type weighing dish and its weight was measured. Further the physiological saline remained in the bladder was sucked with syringe via the bladder catheter and the residual urine volume was measured. The operations of suspending the infusion of physiological saline upon induction of micturition reflex, and about 1 minute thereafter resuming the infusion of physiological saline to induce micturition reflex were repeated plural times (generally 4 times) to stabilize the micturition reflex.
After stabilizing the micturition reflex, a compound solution (prepared by dissolving the compound or methanesulfonic acid salt thereof in DMSO and diluting it with physiological saline or distilled water) or physiological saline was administered into the vein at a volume of 10 mL/kg over 4 minutes, and simultaneously the above-described micturition reflex operations were repeated until 30 minutes passed after initiation of the administration, while measuring the intravesical pressure and the volumes of micturition and residual urine. Also the frequency of uninhibited contraction occurrence during the above-described operations was recorded.

[4] = Tables A and C, read-out: Inhibiting Activity (IC50 value) PDE9
[5] = Table B, read-out: Inhibiting Activity IC50 PDE9

T1 sequence (O76083 whole entry): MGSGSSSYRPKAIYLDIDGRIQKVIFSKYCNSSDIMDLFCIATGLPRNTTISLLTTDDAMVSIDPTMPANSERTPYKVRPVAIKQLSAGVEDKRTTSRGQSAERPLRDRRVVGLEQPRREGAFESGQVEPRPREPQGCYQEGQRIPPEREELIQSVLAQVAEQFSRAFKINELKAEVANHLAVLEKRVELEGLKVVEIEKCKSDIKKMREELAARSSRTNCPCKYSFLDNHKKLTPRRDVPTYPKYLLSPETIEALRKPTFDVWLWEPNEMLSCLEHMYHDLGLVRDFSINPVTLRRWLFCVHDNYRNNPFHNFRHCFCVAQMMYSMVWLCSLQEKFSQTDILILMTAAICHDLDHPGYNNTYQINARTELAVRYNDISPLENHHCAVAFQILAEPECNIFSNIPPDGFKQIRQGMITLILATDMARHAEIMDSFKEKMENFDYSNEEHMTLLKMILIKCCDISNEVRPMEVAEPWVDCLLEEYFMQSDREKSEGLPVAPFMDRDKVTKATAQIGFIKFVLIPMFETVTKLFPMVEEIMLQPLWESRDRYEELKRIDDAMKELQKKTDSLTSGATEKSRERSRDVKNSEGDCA

Row | SMILES | IC50 [1, 4] [µM] | IC50 [2] [µM] | further results
1 | O=C(O)c1ccc2c(=O)[nH]c(Cc3cccnc3)nc2c1 [B-7, 4-Oxo-2-(3-pyridylmethyl)-3,4-dihydroquinazoline-7-carboxylic acid] | – | – | Inhibiting Activity inhibition ratio at 1 μM PDE9 ([1]; Table B): inhibition ratio = 30%
2 | O=C(O)CCc1ncc2c(=O)[nH]c3cc(C(F)(F)F)ccc3n12 [C-8, 3-(4-Oxo-7-trifluoromethyl-4,5-dihydroimidazo[1,5-a]-quinoxalin-1-yl)propionic acid] | 0.002 | 6.37 | –
3 | Cc1c(C(=O)O)sc2nc(CC3=CCCCC3)[nH]c(=O)c12 [A-14, 2-(Cyclohex-1-enylmethyl)-5-methyl-4-oxo-3,4-dihydrothieno-[2,3-d]pyrimidine-6-carboxylic acid] | 0.054 | 1.64 | –
4 | CC(C)c1ncc2c(=O)[nH]c3cc(C(=O)N(C)C)ccc3n12 [C-2, 1-Isopropyl-N,N-dimethyl-4-oxo-4,5-dihydroimidazo[1,5-a]-quinoxaline-7-carboxamide] | 0.042 | > 10 | –
5 | O=C(O)c1cc2c(=O)[nH]c(Cc3cccs3)nc2s1 [A-16, 4-Oxo-2-(thiophen-2-ylmethyl)-3,4-dihydrothieno[2,3-d]-pyrimidine-6-carboxylic acid] | 0.015 | 41.2 | –
6 | Cc1c(C(=O)O)sc2nc(Cc3ccsc3)[nH]c(=O)c12 [A-1, 5-Methyl-4-oxo-2-(thiophen-3-ylmethyl)-3,4-dihydrothieno[2,3-d]-pyrimidine-6-carboxylic acid] | 0.022 | 17.8 | –
7 | Cc1c(C(=O)O)sc2nc(Cc3cc(F)ccc3F)[nH]c(=O)c12 [A-12, 2-(2,5-Difluorobenzyl)-5-methyl-4-oxo-3,4-dihydrothieno-[2,3-d]pyrimidine-6-carboxylic acid] | 0.042 | 19.8 | –
8 | Cc1c(C(=O)O)sc2nc(Cc3ccccc3)[nH]c(=O)c12 [A-34] | 0.035 | 10 | –
9 | Cc1c(C(=O)O)sc2nc(Cc3ccc(Cl)c(Cl)c3)[nH]c(=S)c12 [A-28, 2-(3,4-Dichlorobenzyl)-5-methyl-4-thioxo-3,4-dihydrothieno-[2,3-d]pyrimidine-6-carboxylic acid] | 0.004 | 0.073 | –
10 | Cc1c(C(=O)O)sc2nc(Cc3cccs3)[nH]c(=S)c12 [A-23, 5-Methyl-2-(thiophen-2-ylmethyl)-4-thioxo-3,4-dihydrothieno-[2,3-d]pyrimidine-6-carboxylic acid] | 0.031 | 1.54 | –
11 | O=C(O)c1cc2c(=S)[nH]c(Cc3ccccc3)nc2s1 [A-32, 2-Benzyl-4-thioxo-3,4-dihydrothieno[2,3-d]pyrimidine-6-carboxylic acid] | 0.011 | 8.87 | –
12 | Cc1c(C(=O)O)sc2nc(Cc3cccc(Br)c3)[nH]c(=O)c12 [A-5, 2-(3-Bromobenzyl)-5-methyl-4-oxo-3,4-dihydrothieno[2,3-d]-pyrimidine-6-carboxylic acid] | 0.024 | 4.43 | –
13 | Cc1c(C(=O)O)sc2nc(CC3=CCCC3)[nH]c(=O)c12 [A-13, 2-(Cyclopent-1-enylmethyl)-5-methyl-4-oxo-3,4-dihydrothieno-[2,3-d]pyrimidine-6-carboxylic acid] | 0.028 | 8.59 | –
14 | COc1cccc(Cc2nc3cc(C(=O)O)ccc3c(=O)[nH]2)c1 [B-5, 2-(3-Methoxybenzyl)-4-oxo-3,4-dihydroquinazoline-7-carboxylic acid] | – | – | Inhibiting Activity inhibition ratio at 1 μM PDE9 ([1]; Table B): inhibition ratio = 41%
15 | CCc1ccc2c(c1)[nH]c(=O)c1cnc(CCC(=O)O)n12 [C-7, 3-(7-Ethyl-4-oxo-4,5-dihydroimidazo[1,5-a]quinoxalin-1-yl)-propionic acid] | 0.002 | > 10 | –
16 | Cc1c(C(=O)O)sc2nc(Cc3ccc(F)c(Cl)c3)[nH]c(=S)c12 [A-29, 2-(3-Chloro-4-fluorobenzyl)-5-methyl-4-thioxo-3,4-dihydrothieno[2,3-d]pyrimidine-6-carboxylic acid] | 0.007 | 0.495 | –
17 | O=C(O)CCc1ncc2c(=O)[nH]c3cc(Br)ccc3n12 [C-9, 3-(7-Bromo-4-oxo-4,5-dihydroimidazo[1,5-a]quinoxalin-1-yl)-propionic acid] | 0.003 | 2.81 | –
18 | O=C(c1cc2[nH]c(=O)c3cnc(C4CCCCC4)n3c2cc1Cl)N1CCN(CCO)CC1 [C-6, 1-[(8-Chloro-1-cyclohexyl-4-oxo-4,5-dihydroimidazo[1,5-a]-quinoxalin-7-yl)carbonyl]-4-(2-hydroxyethyl)piperazine] | 0.008 | 7.54 | –
19 | Cc1c(C(=O)O)sc2nc(Cc3cccc(Br)c3)[nH]c(=S)c12 [A-25, 2-(3-Bromobenzyl)-5-methyl-4-thioxo-3,4-dihydrothieno-[2,3-d]pyrimidine-6-carboxylic acid] | 0.011 | 0.712 | –
20 | CC(C)c1ncc2c(=O)[nH]c3cc(Cl)ccc3n12 [C-1, 7-Chloro-1-isopropylimidazo[1,5-a]quinoxalin-4 (5H)-one] | 0.01 | 1.26 | –
21 | O=C(O)c1cc2c(=O)[nH]c(Cc3cccc(C(F)(F)F)c3)nc2s1 [A-19, 4-Oxo-2-(3-trifluoromethylbenzyl)-3,4-dihydrothieno-[2,3-d]pyrimidine-6-carboxylic acid] | 0.015 | 30.2 | –
22 | COc1ccccc1Cc1nc2cc(C(=O)O)ccc2c(=O)[nH]1 [B-4, 2-(2-Methoxybenzyl)-4-oxo-3,4-dihydroquinazoline-7-carboxylic acid] | – | – | IC50 [1, 5]: 1.29 µM
23 | O=C(O)c1ccc2c(=O)[nH]c(Cc3cccs3)nc2c1 [B-8, 4-Oxo-2-(2-thienylmethyl)-3,4-dihydroquinazoline-7-carboxylic acid] | – | – | IC50 [1, 5]: 0.093 µM
24 | O=C(O)c1ccc2c(=O)[nH]c(Cc3ccccn3)nc2c1 [B-6, 4-Oxo-2-(2-pyridylmethyl)-3,4-dihydroquinazoline-7-carboxylic acid] | – | – | IC50 [1, 5]: 1.29 µM
25 | Cn1c(Cc2cccc(Cl)c2)nc2cc(C(=O)O)ccc2c1=O [B-9, 2-(3-Chlorobenzyl)-3-methyl-4-oxo-3,4-dihydroquinazoline-7-carboxylic acid] | – | – | IC50 [1, 5]: 4.66 µM
26 | COc1ccc(Cc2nc3cc(C(=O)O)ccc3c(=O)[nH]2)cc1OC [B-3, 2-(3,4-Dimethoxybenzyl)-4-oxo-3,4-dihydroquinazoline-7-carboxylic acid] | – | – | Inhibiting Activity inhibition ratio at 1 μM PDE9 ([1]; Table B): inhibition ratio = 11%
27 | CC(C)c1ncc2c(=O)[nH]c3cc(Cl)ccc3n12 [C-1 (methanesulfonate)] | – | – | Frequency of occurrence of uninhibited contraction volume change [3]: +0.77 times/min; Residual urine volume volume change [3]: 0.22 mL

— patent US20100113484A1, “TREATING AGENT OF UROPATHY” (ASKA PHARMACEUTICAL CO., LTD., priority 2006, published 2010)
